How the values were obtained:
[1] = system: basophils; assay: Basophil activation: RH 123 signal in CD123(+)/CD16(-) gated cells; type: cell-based, human
Source text: Activation of basophils from human blood samples following exposure to exogenous stimulants was investigated using flow cytometry analysis of RH 123 fluorescence, as well as cell surface markers CD16 and CD193, and side scattering profiles. CD123 is a cell surface marker that is expressed on basophils and eosinophils. FIGS. 25A-25C show density plots of CD123 signals at channel 4 (FL4-A) for DHR 123 only (FIG. 25A), DHR 123+PMA stimulant (FIG. 25B), and DHR 123+DM stimulant exposed group (FIG. 25C) following exposure to stimulant for 1.5 hours. FIGS. 25D-25F show corresponding gated RH 123 results (MFI=2055, MFI=6388, and MFI=3023, respectively). FIGS. 26A-26C show density plots of CD123 signals at channel 4 (FL4-A) for DHR 123 control group (FIG. 26A), DHR 123 and dust mite stimulant-exposed group (FIG. 26B), and DHR 123 and ragweed pollen stimulant-exposed group (FIG. 26C) following exposure to stimulant for 2.5 hours. FIGS. 26D-26F show corresponding gated RH 123 results (MFI=1800, MFI=3299, and MFI=1270, respectively).
Basophil population was selected by having CD123(+)/CD16(−) expression profiles, along with lower side scattering (shown in FIGS. 25A-25C and FIGS. 26A-26C as encircled). In contrast to reducing eosinophil population for different allergen treated groups, basophil population appeared stable over the experiment time period (1.5 hours and 2.5 hours).

[2] = system: neutrophils; assay: Neutrophil activation: CD16 surface marker fluorescence (channel 2 FL2-A); type: cell-based, human
Source text: Dead cells were gated and removed using PI(+) viability marker. The cell surface marker CD33 was used to distinguish the lymphocyte population from the monocyte and granulocyte populations. The cell surface marker CD16 was used to distinguish neutrophil and eosinophil populations from the monocytes and lymphocyte populations. The cell surface marker CD123 was used to distinguish the basophil population. Activated granulocytes were observed using the granulocyte activation surface marker CD63(+). Activated basophil and eosinophil populations were observed using surface markers […], in-tandem with CD63(+). Activated basophils were observed using the surface marker profile of CD63(+)/CD203c(+). Activated eosinophils were observed using the surface marker profile of CD63(+)/CD193(+)/CD203c(+). Activated neutrophils were observed using the surface marker profile of CD63(+)/CD193(−)/CD203(−). Activation of subpopulations was quantified as fold-change compared to the mean of the negative control samples.
Activation of neutrophils from human blood samples following exposure to exogenous stimulants was investigated using flow cytometry analysis of R123 fluorescence, as well as cell surface markers CD16, CD193, and CD123, and side scattering profiles. Density plots for RH 123 (channel 1; FL1-A), CD16 (channel 2; FL2-A), CD193 (channel 3, FL3-A), and CD123 (channel 4, FL4-A) following exposure to dust mite stimulant for 1.5 hours are shown in FIGS. 19A-19L (DHR 123 only: FIGS. 19A-19D; DHR 123+PMA stimulant: FIGS. 19E-19H; and DHR 123+DM stimulant: FIGS. 19I-19L). […] Histograms of CD16 fluorescence at 1.5 hours after stimulant exposure are shown in FIGS. 20A-20C (DHR 123 control: FIG. 20A, MFI=27956; DHR 123+PMA stimulant: FIG. 20B, MFI=11120; and DHR 123+DM stimulant: FIG. 20C, MFI=16358). […]

[3] = 1-3 hr incubation, DHR 123 and PMA

CCCCCCCCCCCCCC(=O)O[C@@H]1[C@@H](C)[C@@]2(O)[C@@H](C=C(CO)C[C@]3(O)C(=O)C(C)=C[C@@H]23)[C@@H]2C(C)(C)[C@]12OC(C)=O [PMA, Phorbol-12-Myristate-13-Acetate]
CD123 signal over incubation time [1, 3]: decreased
gated RH 123 signal MFI, CD123 gated ([1]; 1.5 hours exposure, DHR 123 only control MFI=2055): 6388
basophil activation (in words) ([1]; RH 123 signal vs DHR 123 only control): induced the activation of basophils
CD16 fluorescence signal intensity over time [2, 3]: decreased signal intensity over time
expression of CD16 surface marker (in words) ([2]; 1.5 hours after stimulant exposure): greatly reduced
mean fluorescent intensity (MFI) of CD16 surface marker (channel 2; FL2-A) ([2]; 1.5 hours exposure, DHR 123 only control MFI=27956): 11120

From patent publication US20250327794A1, “FLUOROMETRIC METHODS FOR DETECTION OF ALLERGIC SENSITIVITY TO ENVIRONMENTAL, FOODSTUFF, AND MEDICAMENT STIMULANTS” (CELL SCIENCE SYSTEMS CORPORATION, priority 2022, published 2025)
